Assay results reported in publication PMC2924402, “Insights into the Mechanism of Ligand Binding to Octopine Dehydrogenase from Pecten maximus by NMR and Crystallography” (PLoS ONE, 2010).
Blank lines part the entries; values can stand above or below the compound they belong to.

How the values were obtained:
[1] = molecular target: T1, Octopine dehydrogenase (OcDH) (Pecten maximus, UniProt Q9BHM6); test: 1H-15N TROSY-HSQC NMR titration; also present in the OcDH/NADH/agmatine crystal structure; format: binding
T1 construct: gene odh1; OcDH-His5, U-[15N] labeled

[2] = molecular target: T2, Octopine dehydrogenase (OcDH) (Pecten maximus, UniProt Q9BHM6); test: X-ray crystal structure ([…] Å, soak) of OcDH/NADH/agmatine; Ki from enzyme inhibition (Lineweaver-Burk); format: biochemical
T2 construct: gene odh1; OcDH-His5, residues 2–404 in the model
T2 sequence (Q9BHM6 1-399): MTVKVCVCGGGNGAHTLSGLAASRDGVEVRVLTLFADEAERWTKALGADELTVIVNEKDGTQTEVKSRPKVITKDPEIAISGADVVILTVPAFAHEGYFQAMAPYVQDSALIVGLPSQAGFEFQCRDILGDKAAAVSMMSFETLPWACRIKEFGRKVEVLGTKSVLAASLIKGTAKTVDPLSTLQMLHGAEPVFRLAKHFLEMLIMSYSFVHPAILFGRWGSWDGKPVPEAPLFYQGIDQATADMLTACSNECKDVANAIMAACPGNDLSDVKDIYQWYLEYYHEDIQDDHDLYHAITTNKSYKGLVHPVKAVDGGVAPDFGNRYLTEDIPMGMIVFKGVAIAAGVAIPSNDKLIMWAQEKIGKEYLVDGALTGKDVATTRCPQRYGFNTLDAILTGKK

[3] = molecular target: T1, Octopine dehydrogenase (OcDH); test: 1H-15N TROSY-HSQC NMR titration; format: binding
[4] = molecular target: T1, Octopine dehydrogenase (OcDH); test: 1H-15N TROSY-HSQC NMR titration of OcDH saturated with […] NADH; format: binding

Kd [1]: 0.062 ± 0.007 mM
Compound: NC(=O)C1=CN([C@@H]2O[C@H](COP(=O)(O)OP(=O)(O)OC[C@H]3O[C@@H](n4cnc5c(N)ncnc54)[C@H](O)[C@@H]3O)[C@@H](O)[C@H]2O)C=CC1 [NADH]

Compound: N=C(N)NCCCCN [agmatine]
Ki [2]: 40 ± 2 mM

Kd [3]: 0.4 ± 0.05 mM
Compound: NC(=O)c1ccc[n+]([C@@H]2O[C@H](COP(=O)([O-])OP(=O)(O)OC[C@H]3O[C@@H](n4cnc5c(N)ncnc54)[C@H](O)[C@@H]3O)[C@@H](O)[C@H]2O)c1 [NAD^+]

Compound: N=C(N)NCCC[C@H](N)C(=O)O [L-arginine]
Kd [4]: 4.1 ± 0.31 mM
